# Test results reported in patent US20140023611A1 (priority 2010, published 2014).
# Key:
# rat NaP2b (SLC34A2) = target: T1, rat NaP2b (SLC34A2) (Rattus norvegicus, UniProt Q9JJ09); assay: Inhibition of NaP2b-mediated Pi (33P) uptake in transfected HEK293 cells, rat NaP2b; format: cell-based; conditions: 33P Pi uptake, 0.1 mM phosphate, value given as pIC50 range
# T1 construct: host or cells: HEK293
# T1 sequence (Q9JJ09 1-695): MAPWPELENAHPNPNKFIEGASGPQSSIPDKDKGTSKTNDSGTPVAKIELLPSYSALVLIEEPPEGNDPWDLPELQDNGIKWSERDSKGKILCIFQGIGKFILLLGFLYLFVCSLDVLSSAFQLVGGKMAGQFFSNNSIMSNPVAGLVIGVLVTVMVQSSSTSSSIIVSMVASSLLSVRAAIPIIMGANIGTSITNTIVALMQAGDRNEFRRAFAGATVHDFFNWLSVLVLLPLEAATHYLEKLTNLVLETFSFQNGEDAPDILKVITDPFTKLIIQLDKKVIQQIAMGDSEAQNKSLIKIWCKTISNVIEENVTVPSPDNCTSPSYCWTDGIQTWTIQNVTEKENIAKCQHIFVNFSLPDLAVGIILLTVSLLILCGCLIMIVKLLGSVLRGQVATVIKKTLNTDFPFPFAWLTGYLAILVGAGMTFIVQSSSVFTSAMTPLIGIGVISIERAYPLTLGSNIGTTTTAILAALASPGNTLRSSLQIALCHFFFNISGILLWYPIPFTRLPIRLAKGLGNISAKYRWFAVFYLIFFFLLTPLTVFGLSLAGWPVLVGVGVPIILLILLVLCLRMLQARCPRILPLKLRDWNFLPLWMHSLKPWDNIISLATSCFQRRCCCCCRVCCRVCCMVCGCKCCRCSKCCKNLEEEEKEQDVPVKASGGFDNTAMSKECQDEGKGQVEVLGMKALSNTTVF
# Outline: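 The cells transiently expressed NaP2b after Lipofectamine transfection. Each compound was run in duplicate over twelve concentrations, 0.1 nM–30 uM.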
# [1] = Stability of compounds in simulated gastric fluid (SGF); format: in vitro ADME; conditions: simulated gastric fluid (3 mg/mL pepsin), incubation time 6 hr, relative to t=0
# Procedure: (§1) Test compounds were incubated at […] in simulated gastric fluid (SGF; standard USP solution with 3 mg/mL pepsin) or simulated intestinal fluid (SIF; standard USP solution with 3 mg/mL pancreatin) for 3 hr or 6 hr. HPLC-UV or HPLC-MS were used to determine test compound levels using peak area %. Results (Table 14) were reported as the percentage of test compound remaining after incubation in a given condition relative to test compound present at t=0 in the same condition.
# [2] = Stability of compounds in simulated intestinal fluid (SIF); format: in vitro ADME; conditions: simulated intestinal fluid (3 mg/mL pancreatin), incubation time 6 hr, relative to t=0
# Procedure: as §1
# [3] = Determination of compound Cmax and AUC after oral gavage (plasma LC-MS/MS); format: in vivo, Sprague-Dawley rats; conditions: Sprague-Dawley, rat, plasma, po, Structure (I) examples, Table 15, actual oral dose 3-15 mg/kg, plasma 0.5-4 h
# Outline: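 Plasma exposure measured by LC-MS/MS after acetonitrile precipitation with internal standard, quantified against a standard curve made in plasma. Compound given orally by gavage to Sprague-Dawley rats at nominal 2.5 or 10 mg/kg, with K2EDTA plasma sampled at 0.5, 1, 2 and 4 h.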
SMILES,IC50 (rat NaP2b (SLC34A2)) [µM],"% remaining, SGF [1] [%]","% remaining, SIF [2]",AUC [3] [ng·h/mL],Cmax [3] [ng/mL]
"COCCOCCOCCOCCOCCOCCOCCOCCNC(=O)CCOCCOCCOCCOCCSCc1cccc(C(=O)Nc2ccc(N3CCCCC3)cc2-c2cc(C(=O)NCc3cccc(C(F)(F)F)c3)ccn2)c1 [Example 148, 2-(2-(3-(27-oxo-2,5,8,11,14,17,20,23,30,33,36,39-dodecaoxa-42-thia-26-azatritetracontan-43-yl)benzamido)-5-(piperidin-1-yl)phenyl)-N-(3-(trifluoromethyl)benzyl)isonicotinamide]",1 to 7.94,>80,>80%,< 10,< 10
"O=C(CCOCCOCCOCCOCCSCc1cccc(C(=O)Nc2ccc(N3CCCCC3)cc2-c2cc(C(=O)NCc3cccc(C(F)(F)F)c3)ccn2)c1)NCCOCCOCCOCCOCCOCCOCCOCCO [Example 149, 2-(2-(3-(41-hydroxy-17-oxo-5,8,11,14,21,24,27,30,33,36,39-undecaoxa-2-thia-18-azahentetracontyl)benzamido)-5-(piperidin-1-yl)phenyl)-N-(3-(trifluoromethyl)benzyl)isonicotinamide]",1 to 7.94,>80,>80%,< 10,< 10
"CN(CCN1CCOCC1)C(=O)CCOCCOCCOCCOCCSCc1cccc(C(=O)Nc2ccc(N3CCCCC3)cc2-c2cc(C(=O)NCc3cccc(C(F)(F)F)c3)ccn2)c1 [Example 150, 2-(2-(3-(18-methyl-20-morpholino-17-oxo-5,8,11,14-tetraoxa-2-thia-18-azaicosyl)benzamido)-5-(piperidin-1-yl)phenyl)-N-(3-(trifluoromethyl)benzyl)isonicotinamide]",10 to 31.6,>80,>80%,< 10,< 10
"O=C(NCc1cccc(C(F)(F)F)c1)c1ccnc(-c2cc(N3CCCCC3)ccc2NC(=O)c2cccc(CSCCOCCOCCOCCOCCC(=O)N(CCO)CCO)c2)c1 [Example 151, 2-(2-(3-(20-hydroxy-18-(2-hydroxyethyl)-17-oxo-5,8,11,14-tetraoxa-2-thia-18-azaicosyl)benzamido)-5-(piperidin-1-yl)phenyl)-N-(3-(trifluoromethyl)benzyl)isonicotinamide]",1 to 7.94,>80,40-60%,< 10,< 10
"CCN(CC)CCN(C)C(=O)CCOCCOCCOCCOCCSCc1cccc(C(=O)Nc2ccc(N3CCCCC3)cc2-c2cc(C(=O)NCc3cccc(C(F)(F)F)c3)ccn2)c1 [Example 152, 2-(2-(3-(21-ethyl-18-methyl-17-oxo-5,8,11,14-tetraoxa-2-thia-18,21-diazatricosyl)benzamido)-5-(piperidin-1-yl)phenyl)-N-(3-(trifluoromethyl)benzyl)isonicotinamide]",1 to 7.94,>80,>80%,< 10,< 10
"CCN(CC)c1ccc(NC(=O)c2cccc(CSCCOCCOCCOCCOCCC(=O)O)c2)c(-c2cc(C(=O)N[C@H]3CCCc4ccccc43)ccn2)c1 [Example 157, (S)-1-(3-(4-(diethylamino)-2-(4-(1,2,3,4-tetrahydronaphthalen-1-ylcarbamoyl)pyridin-2-yl)phenylcarbamoyl)phenyl)-5,8,11,14-tetraoxa-2-thiaheptadecan-17-oic acid]",< 1,>80,>80%,< 10,< 10
"CCN(CC)c1ccc(NC(=O)c2cccc(CSCCOCCOCCOCCOCCC(=O)NCCOCCOCCOCCOCCOCCOCCOCCOC)c2)c(-c2cc(C(=O)N[C@H]3CCCc4ccccc43)ccn2)c1 [Example 157.1, (S)-2-(5-(diethylamino)-2-(3-(27-oxo-2,5,8,11,14,17,20,23,30,33,36,39-dodecaoxa-42-thia-26-azatritetracontan-43-yl)benzamido)phenyl)-N-(1,2,3,4-tetrahydronaphthalen-1-yl)isonicotinamide]",1 to 7.94,>80,>80%,< 30,< 10
